For assay [1], the system named is prostate cancer RM-1 allografts. The assay can be described thus: Inhibitory effect of combination with DDP on prostate cancer RM-1 allografts in mice. It is filed as in vivo, mouse RM-1 cells in female C57/BL6 mice. How it is done: Experimental animal: female C57/BL6 mice provided by Beijing Vital River Laboratory Animal Technology Co., Ltd.
Experimental method: Female C57/BL6 mice were subcutaneously inoculated with mouse prostate RM-1 cells. Six days after inoculation, the mice were grouped when the mean tumor volume was about 140 mm^3 (d0). Drugs were administered intravenously (except that DDP was administered intraperitoneally) at d0, d2, d4, d6, d8, and d10 for a total of 6 times. The experiment was terminated at d15. In the A1 high-dose group, A1 was administered at a dose of 12 mg/kg for the first three times and 6 mg/kg for the last three times, with a cumulative dose of 54 mg/kg; in the A1 low-dose group, A1 was administered at a dose of 6 mg/kg for six times, with a cumulative dose of 36 mg/kg; in the DPP group, DPP was administered at a dose of 1 mg/kg for six times, with a cumulative dose of 6 mg/kg; in the vehicle control group, 5% glucose injection (at an equal volume to A1 high-dose group) was administered; in the A1+DDP-1 group, A1 was administered at a dose of 6 mg/kg for six times, with a cumulative dose of 36 mg/kg, and DPP was administered at a dose of 1 mg/kg for six times, with a cumulative dose of 6 mg/kg; in the A1+DDP-2 group, A1 was administered at a dose of 12 mg/kg for the first three times and 6 mg/kg for the last three times with a cumulative dose of 54 mg/kg, and DPP was administered at a dose of 1 mg/kg for six times, with a cumulative dose of 6 mg/kg. During the experiment, the body weight and tumor volume of animals were monitored three times a week, and the values of the tumor volume (TV), relative tumor volume (RTV), and relative tumor proliferation rate (T/C) were calculated.
Methods for drug preparation: A1: the paclitaxel cationic liposome was dissolved by adding water for injection, and then diluted with glucose and sodium chloride injection to the desired concentration; DDP: the DDP powder was dissolved in 5% glucose injection and subjected to ultrasound to formulate the desired concentration.

Assay [2] deals with human pancreatic cancer CFPAC-1 xenografts. As to the kind of experiment: Inhibitory effect on human pancreatic cancer CFPAC-1 xenografts in mice. It is filed as in vivo, human cells in female Nu/Nu nude mice. How it is done: Experimental animal: female Nu/Nu nude mice provided by Beijing Vital River Laboratory Animal Technology Co., Ltd.
Experimental method: Female Nu/Nu nude mice were subcutaneously inoculated with human pancreatic cancer CFPAC-1 cells. 5 days after inoculation, the mice were divided into 7 groups when the mean tumor volume was 228 mm^3 (d0), namely, the vehicle control group (5% glucose injection), the 6 mg/kg of A1 group, the 3 mg/kg or 6 mg/kg of A1+20 mg/kg of gemcitabine for injection (GEM) group, the 6 mg/kg of paclitaxel injection (Taxol) group, the 6 mg/kg of Taxol+20 mg/kg of GEM group, and the 20 mg/kg of GEM group, respectively. There were 10 mice in each group. Drugs were administered intravenously (except that the GEM was administered intraperitoneally for 5 times (at the first five time points)) at d0, d3, d6, d9, d13, and d16 for a total of 6 times. After the last administration, the mice were further observed for 11 d (i.e. d27) and the experiment was terminated. During the experiment, the body weight and tumor volume of animals were monitored twice a week, and the tumor volume (TV) was calculated. At the end of the experiment, the tumor weight was weighed and the tumor weight inhibition rate was calculated.
Methods for drug preparation: A1 was prepared using the same method as in Example 2. The gemcitabine for injection was dissolved in saline to achieve the desired concentration. Paclitaxel injection (Taxol) was diluted with saline to the desired concentration.
(In xenograft studies the graft and the host belong to different species.)

The test system of assay [3] is human triple-negative breast cancer MDA-MB-231 xenografts. The assay can be described thus: Inhibitory effect on human triple-negative breast cancer MDA-MB-231 xenografts in mice. It counts as in vivo, human cells in female NOD/SCID mice. The following applies: dose 400 mg/kg po. As for the experimental part: Experimental animal: female NOD/SCID mice provided by Beijing Vital River Laboratory Animal Technology Co., Ltd.
Experimental method: Female NOD/SCID mice were subcutaneously inoculated with human triple-negative breast cancer MDA-MB-231 cells. 7 days after inoculation, the mice were divided into 7 groups when the mean tumor volume was 120 to 130 mm^3 (d0), namely, the vehicle control group (5% glucose injection), the 6 mg/kg of A1 group, the 3 mg/kg or 6 mg/kg of A1+400 mg/kg of capecitabine for injection (CAP) group, the 6 mg/kg of paclitaxel injection (Taxol) group, the 6 mg/kg of Taxol+400 mg/kg of CAP group, and the 400 mg/kg of CAP group, respectively. The CAP for injection was administered intragastrically twice a week and the other drugs were administered intravenously twice a week for a total of 7 times (d0, d3, d7, d10, d14, d17, and d21). The experiment was terminated at d28. During the experiment, the body weight and tumor volume of animals were monitored twice a week, and the tumor volume (TV) was calculated. At the end of the experiment, the tumor weight was weighed and the tumor weight inhibition rate was calculated.
Methods for drug preparation: CAP was prepared by diluting with water for injection to the desired concentration, and the rest of drugs were prepared according to the method described in Example 3.

SMILES strings stand for the structures. Marks after values point to notes of the source that are not given here.

A word on the T/C: it is the result in the treated group divided by that in the control group, in per cent.

For `N.N.[Cl][Pt][Cl]` [DDP, Cisplatin], the “Tumor Volume d15” value in assay [1] (cumulative dose 6 mg/kg (1 mg/kg x6) i.p., d0-d10, x ± sd, n = 9) is recorded as 3494.6 ± 710.9 mm^3. Further, the “Tumor Volume d0” value in assay [1] (cumulative dose 6 mg/kg (1 mg/kg x6) i.p., d0 at grouping, before dosing, x ± sd, n = 9) came to 145.1 ± 22.8 mm^3. Moreover, the T/C in assay [1] (cumulative dose 6 mg/kg i.p., d15) turned out to be 77.1%. Moreover, the RTV in assay [1] (cumulative dose 6 mg/kg i.p., d15, x ± sd, n = 9) came to 24.9 ± 7.6.

On to `Nc1ccn([C@@H]2O[C@H](CO)[C@@H](O)C2(F)F)c(=O)n1` [GME, gemcitabine], for which, in assay [2] (dose 20 mg/kg ip x5, x ± sd, n = 10), the “Tumor Volume d27” value was 720.9 ± 152.8** mm^3. For the same compound, in assay [2] (dose 20 mg/kg ip, d0 at grouping, before dosing, x ± sd, n = 10), the “Tumor Volume d0” value came to 227.3 ± 52.8 mm^3. In assay [2] (dose 20 mg/kg ip, end of experiment (d27)), the “Tumor Weight Inhibition Rate” value is on record as 48.4%. Further, the “Tumor Weight” value in assay [2] (dose 20 mg/kg ip, end of experiment (d27), x ± sd, n = 10) was 0.8238 ± 0.3253 g.

Regarding `CCCCCOC(=O)Nc1nc(=O)n([C@@H]2O[C@H](C)[C@@H](O)[C@H]2O)cc1F` [CAP, capecitabine], in assay [3] (7 times, x ± sd, n = 10), the “Tumor Volume d20” value was 1708.3 ± 564.8** mm^3. Besides, the “Tumor Volume d0” value in assay [3] (d0 at grouping, before dosing, x ± sd, n = 10) is reported as 124.5 ± 19.4 mm^3. The “Tumor Weight Inhibition Rate” value in assay [3] (end of experiment (d28)) turned out to be 33.4%. For the same compound, in assay [3] (end of experiment (d28), x ± sd, n = 10), the “Tumor Weight” value worked out at 1.3679 ± 0.2649 g.
